Values belong to the compound of their own block, whether it stands above or below them.
How the values were obtained:
KKA^y mice = assay: KKAy mice on high fat diet, 14-day oral gavage BID; assay type: in vivo, mouse
Description: 52 male KKA^y mice are obtained commercially (e.g., from Clea Japan) at an age of 6 weeks and put on a high fat diet upon arrival. Individual mice were housed in IVC Type II cages during both the acclimatization and the experimental phase. Both food (high fat diet) and water are supplied ad libitum.
1 animal per cage. […] Lights on at 06:00 a.m. Temperature: 21-25° C. Relative humidity target range: 55-60%.
Mice were randomized into treatment groups according to their 4-h fasting blood glucose.
4 hours after the last administration, non-fasting conditions.
Gamma irradiated high fat diet is commercially available (e.g., Research Diets, Inc. New Brunswick, N.J. (Product # D12266BI)).
Blood is collected into heparin containing glass capillaries which are subsequently centrifuged in a “Haematokrit 24” centrifuge (Hettich) at 15′200×g for 10 minutes at room temperature to obtain the hematocrit value.
The following serum parameters are determined on a COBAS INTEGRA 800 auto analyzer (Roche Diagnostics, Switzerland) using the reagents and protocols provided by the supplier.
All measurements are made on Day 14 of administration, except for the food intake and body weight measurements that are made on Day 12.

[1] = tested on: arterial thrombosis in a mouse model; assay: Arterial thrombosis mouse model (FeCl3 on femoral artery); assay type: in vivo
Description: The solutions are diluted 3.3-fold in saline and 100 μl/25 g is injected. Thus, the above-mentioned doses of 100 and 300 mg/kg of compound correspond to final doses of 30 and 100 mg/kg.
During the experiments, a soluble salt of the drug is provided (potassium salt of compound C), diluted in saline. Of this formulation, 100 μl/25 g is injected i.v. in the tail vein (dose of 100 mg/kg).
Solutions are injected (100 μl/25 g body weight) i.v. in the tail vein over 2 min to obtain doses of each compound of 30 mg/kg and 100 mg/kg. Aspirin is given the same way at a dose of 200 mg/kg. Clopidogrel is administered by oral gavage at a dose of 20 mg/kg at 6-7 hours prior to the experiment. The animals assigned to each group are matched for body weight. Mice are typically 8-10 weeks old males and are in a 100% Swiss genetic background.
The flow in each image is expressed as a percentage of that at the contralateral side, and data are averaged for all 120 images to determine total flow. The same analysis is performed for 10 min intervals (which gives essentially the same information as the area under the curve). […] Flow before treatment is recorded as 100%, and that in occluded arteries as 0%. At the end of the experiment, blood is collected on 0.01M citrate by heart puncture for determination of blood cell counts. Plasma is prepared by centrifugation and stored at −20° C. for determination of drug levels.
Statistical analysis for differences between two groups is performed by non-parametric Student t-test. Occlusion times >30 min were considered equal to 30 min for statistical analysis. Significance is set at p<0.05.

[2] = tested on: New Zealand Rabbit platelet rich plasma; assay: TP receptor platelet aggregation, rabbit (U-46619-induced); assay type: cell-based
Description: Thrombosis Research 33:277-288.
TP Receptor Platelet Aggregation—Rabbit:
New Zealand Rabbit (2.75±0.25 kg) platelet rich plasma
Assay: Inhibition of 1.5 μM U-46619-induced platelet aggregation Incubation Time, Temp: 5 minutes at 37° C. Incubation Buffer Trisodium Citrate (0.13 M)-treated platelet rich plasma
Time of Assessment: 5 minutes
Quantification Method Optical Density Change

[3] = target: T1, Thromboxane receptor (TP) (Homo sapiens, UniProt P21731); assay: TP receptor radioligand binding ([3H] SQ-29548); settings: Human recombinant HEK-293 cells
T1 construct: expressed in transfected cells; host or cells: HEK-293
T1 sequence (P21731 1-343): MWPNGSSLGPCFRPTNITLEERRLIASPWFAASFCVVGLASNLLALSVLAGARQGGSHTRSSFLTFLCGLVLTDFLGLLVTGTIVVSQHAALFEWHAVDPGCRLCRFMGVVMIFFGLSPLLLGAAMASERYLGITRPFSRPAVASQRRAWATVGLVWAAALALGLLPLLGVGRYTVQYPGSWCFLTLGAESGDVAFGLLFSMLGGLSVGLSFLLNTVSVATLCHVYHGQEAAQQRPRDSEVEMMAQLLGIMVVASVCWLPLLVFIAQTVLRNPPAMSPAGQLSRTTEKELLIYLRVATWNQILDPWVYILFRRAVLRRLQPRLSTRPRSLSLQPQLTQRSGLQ
Description: The compounds were tested on radioligand binding assays for thromboxane receptor binding essentially as described by Hedberg et al. (1988) J. Pharmacol. Exp. Ther. 245:786-792 and Saussy et al. (1986) J. Biol. Chem. 261: 3025-3029 according to the following:
TP Receptor Radioligand Binding Studies:
Human recombinant HEK-293 cells,
Incubation Time, Temp: 30 minutes at 25° C.
Incubation Buffer: 50 mM Tris-HCl, pH 7.4, 154 mM NaCl
Non-Specific Ligand: 1 μM SQ-29548
The data were transformed to semi-log and then analysed using non-linear regression to a four-parameter dose-response curve Y=Bottom+(Top−Bottom)/(1+10̂((LogEC50−X)*HillSlope)) using the log(agonist) vs. response—Variable slope function of GraphPad Prism software (http://graphpad.com/help/prism5/prism5help.html?usitignonlinear_regression_step_by_s.htm).

Thromboxane synthase = target: T2, Thromboxane synthase (Homo sapiens, UniProt P24557); assay: Human platelet thromboxane synthase assay; assay type: biochemical
T2 construct: Human Platelet Thromboxane Synthase Assay; from tissue; host or cells: human platelets
T2 sequence (P24557 1-533): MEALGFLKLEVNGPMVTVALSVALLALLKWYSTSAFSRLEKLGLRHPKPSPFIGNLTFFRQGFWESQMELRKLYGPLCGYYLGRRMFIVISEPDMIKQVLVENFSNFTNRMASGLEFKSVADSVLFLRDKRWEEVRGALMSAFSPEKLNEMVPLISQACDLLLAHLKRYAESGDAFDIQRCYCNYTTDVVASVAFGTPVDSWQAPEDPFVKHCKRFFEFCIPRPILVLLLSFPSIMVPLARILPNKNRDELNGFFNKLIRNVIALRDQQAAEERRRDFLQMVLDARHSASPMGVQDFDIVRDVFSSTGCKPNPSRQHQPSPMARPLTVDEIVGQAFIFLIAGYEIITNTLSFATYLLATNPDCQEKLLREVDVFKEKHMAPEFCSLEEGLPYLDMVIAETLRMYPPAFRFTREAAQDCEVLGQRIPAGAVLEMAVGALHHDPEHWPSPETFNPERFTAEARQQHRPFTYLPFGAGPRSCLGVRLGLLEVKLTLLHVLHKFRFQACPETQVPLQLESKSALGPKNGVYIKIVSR
Description: The compounds were tested for thromboxane synthase inhibition essentially as described by Borsch-Haubold A G, Pasquet S, Watson S P. (1998) Direct inhibition of cyclooxygenase-1 and -2 by the kinase inhibitors SB 203580 and PD 98059. […] 1. Imidazole derivatives. J Med. Chem. (10):1139-48 according to the following:
Pre-incubation time, temp: 15 minutes at 25° C. Incubation time, temp: 3 minutes at 25° C.
Incubation Buffer: 10 mM Tris-HCl, pH 7.4
Quantification Method: EIA quantification of TxB2

[4] = target: T3, Human Recombinant (E. coli) PPARgamma (Homo sapiens, UniProt P37231); assay: PPAR gamma binding assay ([3H]-rosiglitazone); settings: [3H]-rosiglitazone 10 nM; read-out: PPARγ binding IC50
T3 construct: host or cells: E. coli
T3 sequence (P37231 1-505): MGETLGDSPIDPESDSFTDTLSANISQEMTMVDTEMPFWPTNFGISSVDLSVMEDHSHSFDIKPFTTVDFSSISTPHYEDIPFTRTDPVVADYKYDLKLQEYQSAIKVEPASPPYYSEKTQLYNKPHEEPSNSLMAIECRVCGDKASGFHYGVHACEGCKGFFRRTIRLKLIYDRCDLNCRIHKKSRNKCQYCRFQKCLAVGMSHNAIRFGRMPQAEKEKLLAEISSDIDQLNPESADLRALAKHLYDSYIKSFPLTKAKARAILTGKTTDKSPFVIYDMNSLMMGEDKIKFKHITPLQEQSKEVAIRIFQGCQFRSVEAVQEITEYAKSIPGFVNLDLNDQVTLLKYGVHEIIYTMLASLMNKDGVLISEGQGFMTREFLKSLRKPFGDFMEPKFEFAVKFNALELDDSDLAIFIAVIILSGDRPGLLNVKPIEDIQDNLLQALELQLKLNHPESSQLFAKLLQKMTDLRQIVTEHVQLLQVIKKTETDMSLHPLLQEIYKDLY
Description: Incubation: 120 min. at 4° C.
The results are expressed as a percent of control specific binding ((measured specific binding/control specific binding)×100) obtained in the presence of the test compounds. The IC50 values (concentration causing a half-maximal inhibition of control specific binding) and Hill coefficients (nil) were determined by non-linear regression analysis of the competition curves generated with mean replicate values using Hill equation curve fitting (Y=D+[(A−D)/(1+(C/C50)nH)], where Y=specific binding, D=minimum specific binding, A=maximum specific binding, C=compound concentration, C50=IC50, and nH=slope factor). This analysis was performed using a software developed at Cerep (Hill software) and validated by comparison with data generated by the commercial software SigmaPlot® 4.0 for Windows® (© 1997 by SPSS Inc.). The inhibition constants (Ki) were calculated using the Cheng Prusoff equation (Ki=IC50/(1+(L/KD)), where L=concentration of radioligand in the assay, and KD=affinity of the radioligand for the receptor).

[5] = 14-day BID, enoic acid 53 mg/kg, rosiglitazone 5 mg/kg, Compounds 3 and 13 dose not stated
[6] = Oryctolagus cuniculus, Platelet, 1.5 μM U-46619-induced
[7] = 5 mg/kg BID oral gavage, Day 12, mean ± S.E.M.
[8] = 5 mg/kg BID oral gavage, Day 14, mean ± S.E.M.

SMILES: O=C(O)CC/C=C\C[C@@H]1COC(c2ccc(Nc3ccccc3)cc2)O[C@@H]1c1ccccc1O (mixture of isomers) [Compound 3, (Z)-6-(4-(2-Hydroxyphenyl)-2-(4-(phenylamino)phenyl)-1,3-dioxan-5-yl)hex-4-enoic acid]
- Body weight (in words) (KKA^y mice; [5]): do not alter body weight
- FFA (in words) (KKA^y mice; [5]): decreases the FFA
- HbA1c levels (in words) (KKA^y mice; [5]): decreased
- Heart weight (in words) (KKA^y mice; [5]): no effect on heart weight

SMILES: CC(=O)Oc1ccccc1C(=O)O [Aspirin]
- Occlusion time ([1]; 200 mg/kg i.v.): no effect on the occlusion time
- Total blood flow ([1]; 200 mg/kg i.v.): no significant effect on the total blood flow

SMILES: COC(=O)[C@H](c1ccccc1Cl)N1CCc2sccc2C1 [Clopidogrel]
- Total blood flow ([1]; 20 mg/kg oral gavage 6-7 hours prior): significantly improved total blood flow

Second part, led by results:

- inhibition at 10 µM [3]: 100%
- inhibition at 5 µM (Thromboxane synthase; 5 μM): 39%
- IC50 [4]: 2100 nM
SMILES: O=C(O)CC/C=C\C[C@@H]1COC(c2ccccc2Oc2ccc(F)cc2)O[C@@H]1c1ccccc1O (stereo partly shown) [Compound 4]
- inhibition at 10 µM [2, 6]: 100%

- inhibition at 10 µM [3]: 102%
- IC50 ([3]; 5 nM [3H] SQ-29548): 11 nM
- Ki ([3]; 5 nM [3H] SQ-29548): 7.2 nM
- IC50 (Thromboxane synthase): 840 nM
- Thromboxane synthase Human platelet Inhibition (%) at 5 μM (Thromboxane synthase; 5 μM): 76%
- inhibition at 5 µM (Thromboxane synthase; 5 μM): 75%
- Inhibition of thromboxane synthase (in words) (Thromboxane synthase; Table 2): inhibitors of thromboxane synthase
SMILES: O=C(O)CC/C=C\C[C@@H]1COC(c2ccccc2-c2ccccc2)O[C@@H]1c1ccccc1O (stereo partly shown) [Compound 10]
- inhibition at 30 µM ([2]; Oryctolagus cuniculus, Platelet, 30 μM, 1.5 μM U-46619-induced): 100%
- Inhibition of platelet aggregation (in words) ([2]; Table 2): potent inhibitors of platelet aggregation
- Occlusion time ([1]; dose not given): prolongs the occlusion time
- Total blood flow ([1]; dose not given): improves total blood flow

- inhibition at 10 µM [3]: 98%
- inhibition at 5 µM (Thromboxane synthase; 5 μM): 12%
- IC50 [4]: 21000 nM
SMILES: COc1ccccc1C1OC(c2ccccc2Cl)OCC1C/C=C\CCC(=O)O (stereo not shown) [Compound D, (Z)-6-(-2-(2-chlorophenyl)-4-(2-methoxyphenyl)-1,3-dioxan-5-yl)hex-4-enoic acid]
- inhibition at 10 µM [2, 6]: 33%

- IC50 (Thromboxane synthase): 10100 nM
- inhibition at 10 µM (Thromboxane synthase; 10 μM): 53%
SMILES: COc1ccc(C(=O)NCc2cccnc2)cc1C(=O)NCc1cccnc1 [Picotamide]
- inhibition at 100 µM ([2]; Oryctolagus cuniculus, Platelet, 100 μM, 1.5 μM U-46619-induced): 36%

- Food Intake (KKA^y mice; [7]): 4.5 ± 0.6 g/day
- ALP (KKA^y mice; [8]): 26.0 ± 1.7 dU/L
- Heart weight (KKA^y mice; [8]): 226.2 ± 6.9 mg
- Hematocrit (KKA^y mice; [8]): 40.3 ± 1.5%
- Heart weight (in words) (KKA^y mice; [5]): increased
SMILES: CN(CCOc1ccc(CC2SC(=O)NC2=O)cc1)c1ccccn1 (stereo not shown) [Rosiglitazone]
- Body Weight (KKA^y mice; [7]): 49.5 ± 1.0 g
- ALT (KKA^y mice; [8]): 8.9 ± 0.9 dU/L
- AST (KKA^y mice; [8]): 10.1 ± 0.9 dU/L
- FFA (KKA^y mice; [8]): 1.3 ± 0.1 mM
- Fructosamine (KKA^y mice; [8]): 0.35 ± 0.03 mM
- HDL (KKA^y mice; [8]): 3.6 ± 0.2 mM
- HbA1C (KKA^y mice; [8]): 7.8 ± 0.4 %
- Insulin (KKA^y mice; [8]): 17.9 ± 4.2 µg/L
- Serum Glucose (KKA^y mice; [8]): 18.8 ± 2.2 mM
- TG (KKA^y mice; [8]): 1.0 ± 0.2 mM
- Total Cholesterol (KKA^y mice; [8]): 4.0 ± 0.4 mM
- Body weight (in words) (KKA^y mice; [5]): increased

From patent US20120142766A1, “SUBSTITUTED 1,3-DIOXANES AND THEIR USES” (EVOLVA SA, priority 2007, published 2012)
